The values below come from ChEMBL document CHEMBL1144962, “A new sterol sulfate, Sch 572423, from a marine sponge, Topsentia sp” (Bioorg Med Chem Lett, 2003).

This assay deals with P2Y purinoceptor 12 (Homo sapiens, UniProt Q9H244). The experiment in a line: Binding affinity against Purinergic receptor P2Y12 using [3H]2-methylthio-ADP as radioligand. It is filed as tissue-based.

A word on the IC50: it is the concentration needed to halve the response being measured. A low value points to greater potency in that assay.

Chain of P2Y purinoceptor 12 (Q9H244 whole entry): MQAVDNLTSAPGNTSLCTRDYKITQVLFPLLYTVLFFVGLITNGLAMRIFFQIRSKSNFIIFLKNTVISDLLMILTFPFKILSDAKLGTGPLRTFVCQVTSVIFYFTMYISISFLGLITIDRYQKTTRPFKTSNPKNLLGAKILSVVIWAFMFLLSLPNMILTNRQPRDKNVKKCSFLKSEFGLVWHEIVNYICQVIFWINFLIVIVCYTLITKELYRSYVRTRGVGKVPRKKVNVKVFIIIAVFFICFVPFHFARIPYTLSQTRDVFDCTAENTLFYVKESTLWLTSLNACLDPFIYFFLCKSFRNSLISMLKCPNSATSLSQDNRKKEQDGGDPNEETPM

As for `CC(CC[C@@H](C)C1CC[C@H]2[C@@H]3C[C@H](OS(=O)(=O)O)[C@H]4C[C@H](OS(=O)(=O)O)[C@H](OS(=O)(=O)O)C[C@]4(C)[C@@]3(C)CC[C@]12C)C(C)(C)C` (some centres not stated), the concentration for half-maximal inhibition (IC50) was 480 nM.

Molecule `CC(C(O)C(O)[C@@H](C)C1CC[C@H]2[C@@H]3CC[C@H]4C[C@H](OS(=O)(=O)O)[C@H](OS(=O)(=O)O)C[C@]4(C)[C@@]3(C)CC[C@]12C)C(C)(C)C` (some centres not stated) returned an IC50 of 2200 nM.
